No end group written: not given here.
Assays:
[1] = system: MHC II molecules on dendritic cells (CD11c+ cells); test: In vivo MHC class II loading assay (DR3tg mice); design: species or system HLA-DR3-transgenic mice; conditions: 100 µg peptide s.c., spleen 2 h post injection, 72 h co-culture, vs PBS-injected control
Procedure: FIG. 2: Peptide 17JK is correctly loaded on MHC class II in vivo. Response of peptide-specific CD4+ T cells towards peptide loaded in vivo on dendritic cells is shown. HLA-DR3-transgenic mice were injected subcutaneously with 100 µg of 17JK peptide. 2 h post injection, spleens were dissected and CD11c+ cells (dendritic cells) were isolated. These CD11c+ cells were co-cultured with peptide-specific CD4+ cells for 72 h at 37° C. IFNy was measured in the supernatant of these cultures to evaluate the response to peptide by the CD4+ T cells. (*** p<0.001 Mann-Whitney U-test)
FIG. 3: Peptide 15N3K is correctly loaded on MHC class II in vivo. […] IFNy was measured in the supernatant of these cultures to evaluate the response to peptide by the CD4+ T cells. […]
When 100 µg of peptide 9K1K was injected in DR2tg mice or when peptide 17JK or 15N3K was injected in DR3tg mice, these peptides could be detected on dendritic cells (CD11c+ cells) in the spleens of these mice 2 h post injection. Activation (IFNY production) of peptide-specific CD4+ T cells by the isolated CD11 c+ cells was used as a read-out. […]
DR3tg or DR2tg mice were injected with 100 µg of peptide in 100 µl PBS subcutaneously (s.c.) in the flank. […] After 72 hours, supernatant of these co-cultures was collected and CD4+ T cell activation was analysed by IFNy ELISA (R&D Systems, Abingdon, UK). […]

[2] = biological target: HLA-DRA1*0101, DRB1*1101 (DR11) (Homo sapiens, UniProt P01903+P01911, A100R/A169T/A87E/I96F/K41T/L162R/M171V/P40S/Q125H/Q178H/Q39Y/Q99D/R42S/S66Y/T262R/V115G/W38E); test: DR11
Chain of HLA-DRA1*0101, DRB1*1101 (DR11) (P01903 26-254 limits assumed, other chains not shown): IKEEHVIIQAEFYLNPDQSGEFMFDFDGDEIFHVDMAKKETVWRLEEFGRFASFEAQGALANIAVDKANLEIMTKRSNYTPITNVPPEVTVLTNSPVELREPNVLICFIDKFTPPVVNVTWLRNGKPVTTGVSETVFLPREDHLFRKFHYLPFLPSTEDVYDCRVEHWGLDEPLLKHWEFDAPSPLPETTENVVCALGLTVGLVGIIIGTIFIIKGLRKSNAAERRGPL
Procedure: (§1) Table printed on a drawing sheet, Figure 9
(§2) The patent's description of the figure: FIG. 9: Diverse patterns of in vitro peptide-MHC II binding for peptides 9K1, 17JK and 15N3K. Binding of peptides 9K1, 17JK and 15N3K to recombinant HLA-DRA1*0101, DRB1*0101 (DR1), DRB1*1501 (DR2), DRB1*0301 (DR3), DRB1*0401 (DR4), DRB1*1101 (DR11), DRB1*0405 (DR4*05) and DRB1*0901 (DR9) was assessed in vitro. IC50 values (µM) are presented and colour-coded per HLA-DR molecule. Low values (green) indicate strong binding, high values (red) indicate low(er) binding.
(§3) FIG. 9 depicts IC50 (µM) values of peptides 9K1K, 17JK and 15N3K binding to the indicated HLA-DR molecules and competing with a known competitor peptide. Values should be compared only within each HLA-DR molecule. Low IC50 values (green) indicate the strongest binder per HLA-DR molecule. Highest values per HLA-DR molecule (red) are indicative of the lowest binder for that HLA-DR molecule. Intermediate values are indicated in orange. […]
(§4) First copying reader's note: The sheet prints no unit; per the patent description the values are IC50 (µM) for peptide binding to the named HLA-DR molecules, with cell shading coding relative binding strength per HLA-DR molecule.
Where the first naming reader finds the target: description_of_the_figure: recombinant HLA-DRA1*0101, DRB1*0101 (DR1), DRB1*1501 (DR2), DRB1*0301 (DR3), DRB1*0401 (DR4), DRB1*1101 (DR11)

[3] = biological target: HLA-DRA1*0101, DRB1*0901 (DR9) (Homo sapiens, UniProt P01903+P01911, A100R/A103E/D57H/D86V/F55Y/F60I/F76Y/I96F/K127E/L162R/M171V/P40D/Q125H/Q99R/R33Q/R42F/S133A/S66N/T210M/V115G/W38K/Y107V/Y59G/Y89S); test: DR9
Procedure: as §1, §2
FIG. 9 depicts IC50 (µM) values of peptides 9K1K, 17JK and 15N3K binding to the indicated HLA-DR molecules and competing with a known competitor peptide. Values should be compared only within each HLA-DR molecule. Low IC50 values (green) indicate the strongest binder per HLA-DR molecule. Highest values per HLA-DR molecule (red) are indicative of the lowest binder for that HLA-DR molecule. Intermediate values are indicated in orange. […] So, combining the peptides into a cocktail treatment, makes the treatment less restricted to a certain HLA-DR type.
as §4

[4] = biological target: HLA-DRA1*0101, DRB1*0301 (DR3) (Homo sapiens, UniProt P01903+P01911, A100K/A102G/A103R/A169T/F55Y/I96L/K41T/L162R/M171V/P40S/Q125H/Q178H/Q39Y/R42S/S66N/T106N/T262R/W38E/Y61H); test: DR3
Chain of HLA-DRA1*0101, DRB1*0301 (DR3) (P01903 26-254 limits assumed, other chains not shown): as above
Procedure: as §1, §2, §3, §4
Where the first naming reader finds the target: description_of_the_figure: recombinant HLA-DRA1*0101, DRB1*0101 (DR1), DRB1*1501 (DR2), DRB1*0301 (DR3)

IC50 [2] [µM] | Substance | CD4+ T cell activation (IFNy) by CD11c+ cells isolated from spleen of injected mice [1] | IC50 [3] [µM] | IC50 [4] [µM]
0.88 | KKKLTFRRDLYFSRVQVYKKK-NH2 [17JK] | significant CD4+ T cell activation | – | –
– | KKKVIFKKISRDKSVTIYLGKKK-NH2 [15N3K] | significant CD4+ T cell activation | 18.4 | 14.7

Source: US20230203126A1, “A COMPOSITION COMPRISING S-ARRESTIN PEPTIDES” (WORG PHARMACEUTICALS (HANGZHOU) CO., LTD., priority 2019, published 2023)
